{"source": "paper PMC2878737", "about": "(Channels (Austin, Tex.), 2009)", "biological_target": "NaV1.2 (Rattus norvegicus, UniProt P04775)", "sequence (P04775 whole entry, looked up)": "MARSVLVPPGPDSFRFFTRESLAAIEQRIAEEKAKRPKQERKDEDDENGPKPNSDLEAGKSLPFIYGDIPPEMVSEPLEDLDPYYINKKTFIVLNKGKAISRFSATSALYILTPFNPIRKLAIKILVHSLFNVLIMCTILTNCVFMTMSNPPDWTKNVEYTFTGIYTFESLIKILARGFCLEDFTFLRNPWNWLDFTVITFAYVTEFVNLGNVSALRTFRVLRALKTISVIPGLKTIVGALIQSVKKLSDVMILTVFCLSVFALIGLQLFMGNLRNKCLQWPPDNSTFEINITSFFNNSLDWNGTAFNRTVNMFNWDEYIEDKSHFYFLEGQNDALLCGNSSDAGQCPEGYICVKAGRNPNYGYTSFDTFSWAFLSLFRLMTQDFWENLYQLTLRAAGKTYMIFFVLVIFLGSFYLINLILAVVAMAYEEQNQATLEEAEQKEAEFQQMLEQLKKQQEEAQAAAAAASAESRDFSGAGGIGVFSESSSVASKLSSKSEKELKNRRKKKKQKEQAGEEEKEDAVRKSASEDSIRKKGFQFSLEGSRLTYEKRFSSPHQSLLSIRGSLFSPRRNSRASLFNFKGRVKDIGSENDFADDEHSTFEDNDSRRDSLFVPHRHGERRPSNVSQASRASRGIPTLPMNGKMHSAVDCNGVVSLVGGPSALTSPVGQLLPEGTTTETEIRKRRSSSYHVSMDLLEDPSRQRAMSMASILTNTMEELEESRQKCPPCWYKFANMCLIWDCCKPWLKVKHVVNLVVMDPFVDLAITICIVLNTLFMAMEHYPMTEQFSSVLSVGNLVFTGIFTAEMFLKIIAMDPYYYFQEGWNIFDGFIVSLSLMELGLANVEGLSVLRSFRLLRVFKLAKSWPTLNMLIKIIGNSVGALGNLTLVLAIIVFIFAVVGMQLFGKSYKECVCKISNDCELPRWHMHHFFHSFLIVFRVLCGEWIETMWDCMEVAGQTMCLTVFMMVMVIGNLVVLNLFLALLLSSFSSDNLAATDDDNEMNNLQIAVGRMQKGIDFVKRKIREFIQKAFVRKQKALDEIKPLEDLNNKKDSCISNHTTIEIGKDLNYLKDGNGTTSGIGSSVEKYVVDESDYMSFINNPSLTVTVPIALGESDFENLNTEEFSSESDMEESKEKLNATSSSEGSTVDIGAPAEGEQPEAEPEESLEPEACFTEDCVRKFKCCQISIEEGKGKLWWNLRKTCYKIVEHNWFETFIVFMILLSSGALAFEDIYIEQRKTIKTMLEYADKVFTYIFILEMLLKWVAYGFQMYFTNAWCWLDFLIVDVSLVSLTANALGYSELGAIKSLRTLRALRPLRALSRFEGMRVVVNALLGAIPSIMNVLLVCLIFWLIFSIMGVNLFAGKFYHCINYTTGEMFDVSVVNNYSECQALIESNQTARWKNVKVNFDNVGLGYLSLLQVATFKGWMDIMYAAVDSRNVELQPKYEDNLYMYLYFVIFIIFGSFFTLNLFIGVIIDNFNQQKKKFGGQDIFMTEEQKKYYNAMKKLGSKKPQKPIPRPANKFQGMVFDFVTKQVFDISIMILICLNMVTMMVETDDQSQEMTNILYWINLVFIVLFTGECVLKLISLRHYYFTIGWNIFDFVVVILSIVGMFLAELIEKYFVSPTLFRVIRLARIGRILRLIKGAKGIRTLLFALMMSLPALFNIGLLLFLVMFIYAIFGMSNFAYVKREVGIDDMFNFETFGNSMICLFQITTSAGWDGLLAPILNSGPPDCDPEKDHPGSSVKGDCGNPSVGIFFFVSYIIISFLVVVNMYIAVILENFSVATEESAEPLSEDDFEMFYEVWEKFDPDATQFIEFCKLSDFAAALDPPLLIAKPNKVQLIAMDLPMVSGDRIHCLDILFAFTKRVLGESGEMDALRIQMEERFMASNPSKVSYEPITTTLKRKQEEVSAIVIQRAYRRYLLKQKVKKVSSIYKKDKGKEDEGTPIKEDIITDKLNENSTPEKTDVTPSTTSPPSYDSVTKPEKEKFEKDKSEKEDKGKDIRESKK", "data": [{"smiles": "NC1=N[C@H](O)[C@H]2[C@H]3O[C@]4(O)O[C@@H]([C@@H](O)[C@@]2(N1)[C@@H]4O)[C@]3(O)CO", "note": "[TTX, Tetrodotoxin]", "values": [{"measurement": "block of residual INa persisting with KIIIA or KIIIA[K7A]", "value": "completely blocked"}]}]}
